Test results taken from PMC3368886, “ATPase Cycle and DNA Unwinding Kinetics of RecG Helicase” (PLoS ONE, 2012).

Target: T1, RecG with three-strand DNA junction (A40:B40:C19) (Thermotoga maritima, UniProt Q9WY48)
T1 construct: made in house
T1 sequence (Q9WY48 1-780): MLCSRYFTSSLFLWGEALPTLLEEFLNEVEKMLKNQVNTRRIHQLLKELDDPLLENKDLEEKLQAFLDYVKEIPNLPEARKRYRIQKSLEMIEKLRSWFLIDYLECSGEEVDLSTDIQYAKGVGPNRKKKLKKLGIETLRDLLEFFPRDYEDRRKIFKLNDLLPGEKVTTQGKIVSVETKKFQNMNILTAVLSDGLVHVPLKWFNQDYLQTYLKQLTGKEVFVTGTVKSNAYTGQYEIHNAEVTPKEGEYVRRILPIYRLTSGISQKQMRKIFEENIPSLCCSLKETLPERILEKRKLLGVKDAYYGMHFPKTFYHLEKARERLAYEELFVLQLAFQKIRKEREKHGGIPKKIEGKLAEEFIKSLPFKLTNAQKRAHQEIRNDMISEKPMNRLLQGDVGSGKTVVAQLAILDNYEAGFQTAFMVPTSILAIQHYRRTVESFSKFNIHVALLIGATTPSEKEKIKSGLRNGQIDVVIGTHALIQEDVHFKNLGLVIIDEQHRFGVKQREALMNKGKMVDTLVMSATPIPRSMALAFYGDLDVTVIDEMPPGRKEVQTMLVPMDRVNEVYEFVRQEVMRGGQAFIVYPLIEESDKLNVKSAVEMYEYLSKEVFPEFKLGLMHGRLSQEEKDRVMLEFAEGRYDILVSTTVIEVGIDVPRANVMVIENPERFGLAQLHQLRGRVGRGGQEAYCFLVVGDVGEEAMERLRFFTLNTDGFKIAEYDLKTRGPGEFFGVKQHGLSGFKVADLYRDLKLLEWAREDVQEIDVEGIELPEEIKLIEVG
Assay: Single turnover ATPase measurements with three-strand junction
Type: biochemical
Description: Therefore, mantATP binding, quench-flow and phosphate measurements were carried out using with sub-stoichiometric mantATP, but with a non-complementary three-strand DNA junction (A40:B40:C19) to form a lagging strand duplex (as defined in Figure 1A). With excess mantATP, the duplex arm of this junction was unwound by the helicase, leaving RecG bound to the two-strand junction with the third strand displaced. With sub-stoichiometric mantATP, there was only a single turnover, so only partial unwinding of this DNA substrate occurred. The kinetics (Figure S2) were similar to those with the two-strand junction with mantATP binding at 4.2 (±0.4) s^−1, hydrolysis at 0.39 (±0.1) s^−1 and fast Pi release.
Supplementary file pone.0038270.s002.tif: Figure S2 Kinetic measurements of mantATP with excess of RecG and a Three-strand DNA Junction. The concentrations for all experiments were 0.5 µM mantATP, 2.5 µM RecG, 5 µM DNA Junction (A40:B40:C19) and 10 µM MDCC-PBP (for Pi measurement). All measurements were carried out under the conditions of Figure 4. Time course of mant fluorescence (continuous line), mantADP formation (circles) and Pi release (dashed line). […] (TIF) Click here for additional data file.

[1] = three-strand junction A40:B40:C19, sub-stoichiometric mantATP

Compound: CNc1ccccc1C(=O)O[C@H]1[C@@H](O)[C@H](n2cnc3c(N)ncnc32)O[C@@H]1COP(=O)(O)OP(=O)(O)OP(=O)(O)O [mantATP, 2′(3′)-O-(N-methylanthraniloyl)ATP]
- Pi release (three-strand junction A40:B40:C19, result in words): fast
- hydrolysis rate [1]: 0.39 (±0.1) s^−1
- mantATP binding rate [1]: 4.2 (±0.4) s^−1
